Measurements published in patent publication US20240174744A1, “METHODS OF TREATMENT USING PROTEIN BINDERS TO IRHOM2 EPITOPES” (SCIRHOM GMBH, priority 2021, published 2024).

Test system: LPS-induced release of TNFα from THP-1 cells
Test: ELISA-based TNFα release assay, LPS-stimulated THP-1 cells
Assay type: cell-based, human
Settings: 10 μg/ml, Batimastat 10 μM, LPS 50 ng/ml, 2 hours
Protocol: In the following study, ELISA-based TNFα release assays were performed to verify the inhibitory effects of the purified antibodies of the present disclosure on LPS-induced release of endogenous TNFα from human THP-1 monocytic cells.
In brief, on day 1, Nunc black MaxiSorp® 96-well plates (Thermo Fisher Scientific, USA) were coated overnight with 100 μl per well of mouse anti-human TNFα capture antibody (provided as part of the DuoSet ELISA kit) at 4 μg/ml TBS at 4° C. On day 2, the capture antibody solution was removed and MaxiSorp® plates were blocked with 300 μl per well of TBS, 1% BSA at room temperature for 3 hours. […] Using an infinite M1000 (Tecan Group, Switzerland) microplate reader, the fluorescence of each well was collected at an excitation wavelength of 435 nm and an emission wavelength of 555 nm. […]

SMILES: CNC(=O)[C@H](Cc1ccccc1)NC(=O)[C@H](CC(C)C)[C@H](CSc1cccs1)C(=O)NO [Batimastat]
- inhibition of LPS-induced release of TNFα from THP-1 cells (antibodies purified from hybridoma supernatants): 96.2%
- inhibition of LPS-induced release of TNFα from THP-1 cells (recombinant antibodies (Expi293F)): 96.2%
